In patent publication US20160355475A1, “NOVEL INDOLE DERIVATIVE COMPOUND AND PHARMACEUTICAL COMPOSITION COMPRISING THE SAME” (CHONG KUN DANG PHARMACEUTICAL CORP., priority 2014, published 2016) one finds IC50 data, which are given here for 20 molecules.

pIC50: −log10 of the molar value. Some results are limits rather than exact numbers.

One test deals with T1, HDAC6 human recombinant (Homo sapiens, UniProt Q9UBN7).
T1 construct: purchased Calbiochem 382180
T1 sequence (Q9UBN7 1-1215): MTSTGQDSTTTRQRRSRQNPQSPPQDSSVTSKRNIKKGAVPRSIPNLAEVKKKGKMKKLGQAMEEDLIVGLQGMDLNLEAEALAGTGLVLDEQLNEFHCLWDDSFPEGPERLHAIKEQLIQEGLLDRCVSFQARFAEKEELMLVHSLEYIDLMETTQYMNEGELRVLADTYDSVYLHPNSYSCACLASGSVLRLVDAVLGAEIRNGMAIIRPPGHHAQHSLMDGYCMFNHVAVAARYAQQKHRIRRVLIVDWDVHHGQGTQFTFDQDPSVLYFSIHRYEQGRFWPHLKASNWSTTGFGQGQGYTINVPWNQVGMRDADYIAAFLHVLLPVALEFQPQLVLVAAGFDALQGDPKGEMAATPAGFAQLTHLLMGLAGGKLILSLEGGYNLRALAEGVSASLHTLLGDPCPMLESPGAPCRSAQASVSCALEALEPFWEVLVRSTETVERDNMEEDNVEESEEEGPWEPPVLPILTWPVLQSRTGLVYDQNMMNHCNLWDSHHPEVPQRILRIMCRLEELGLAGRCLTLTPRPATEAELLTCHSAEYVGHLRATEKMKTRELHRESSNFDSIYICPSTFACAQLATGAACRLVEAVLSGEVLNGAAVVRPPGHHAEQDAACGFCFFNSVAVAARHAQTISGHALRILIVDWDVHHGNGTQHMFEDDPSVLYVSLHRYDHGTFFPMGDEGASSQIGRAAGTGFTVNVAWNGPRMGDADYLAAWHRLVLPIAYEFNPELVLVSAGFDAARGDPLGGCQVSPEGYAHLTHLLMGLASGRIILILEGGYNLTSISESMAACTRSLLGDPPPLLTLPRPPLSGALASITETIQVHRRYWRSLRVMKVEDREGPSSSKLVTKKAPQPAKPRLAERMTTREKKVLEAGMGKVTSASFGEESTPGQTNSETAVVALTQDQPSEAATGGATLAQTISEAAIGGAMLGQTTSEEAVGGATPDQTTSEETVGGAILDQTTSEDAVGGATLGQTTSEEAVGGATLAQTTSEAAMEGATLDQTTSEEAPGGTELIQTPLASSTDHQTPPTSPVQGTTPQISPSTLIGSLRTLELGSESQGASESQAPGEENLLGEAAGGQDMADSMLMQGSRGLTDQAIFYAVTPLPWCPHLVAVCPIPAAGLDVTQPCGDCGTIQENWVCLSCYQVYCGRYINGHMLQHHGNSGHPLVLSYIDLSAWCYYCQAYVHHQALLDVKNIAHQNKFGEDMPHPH
Kind of test: HDAC6 enzyme activity inhibition (fluorimetric, in vitro). As to conditions: 37° C., 60 minutes; tested at 0.1, 1, 10, 100 and 1000 nM. Type of test: biochemical. The procedure:
(§1) 1. Experiment on Activities in HDAC Enzymes (HDAC1 and HDAC6)
(§2) Assays were performed using a HDAC1 fluorimetric drug discovery assay kit (Enzolifesciences: BML-AK511) and a HDAC6 human recombinant (Calbiochem: 382180). The assay mixture of the kit was treated with each of the compounds of the Examples at concentrations 100, 1000 and 10000 nM for HDAC1 assay and 0.1, 1, 10, 100 and 1000 nM for HDAC6 assay. The treated assay mixture was allowed to react at 37° C. for 60 minutes, and then was treated with a developer and allowed to stand at 37° C. for 30 minutes, followed by quantification of the fluorescence. In Table 17, lower HDAC6 values (μM) indicate higher HDAC6 inhibitory activities of the compounds. Also, because selective HDAC6 inhibitors should not inhibit HDAC1 (μM), higher HDAC1 values indicate higher HDAC6 selectivity of the compounds.

For the next test, the target named is T2, HDAC1 (Homo sapiens, UniProt Q13547).
T2 construct: purchased Enzolifesciences BML-AK511
T2 sequence (Q13547 whole entry): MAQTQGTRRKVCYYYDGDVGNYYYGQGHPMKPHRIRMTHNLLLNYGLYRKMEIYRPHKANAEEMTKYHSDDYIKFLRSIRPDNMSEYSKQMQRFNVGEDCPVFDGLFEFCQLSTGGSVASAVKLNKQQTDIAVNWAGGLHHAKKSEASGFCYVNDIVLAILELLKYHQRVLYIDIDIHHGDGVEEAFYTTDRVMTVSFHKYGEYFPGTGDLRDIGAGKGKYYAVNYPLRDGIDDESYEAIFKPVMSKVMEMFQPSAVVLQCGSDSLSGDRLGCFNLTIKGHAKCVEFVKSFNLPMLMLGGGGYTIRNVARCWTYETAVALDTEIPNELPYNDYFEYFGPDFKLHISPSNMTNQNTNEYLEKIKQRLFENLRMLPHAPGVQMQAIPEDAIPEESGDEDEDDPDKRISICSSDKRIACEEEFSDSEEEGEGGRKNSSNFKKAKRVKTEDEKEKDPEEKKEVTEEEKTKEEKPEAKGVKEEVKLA
Put plainly: HDAC1 enzyme activity inhibition (HDAC1 fluorimetric drug discovery assay kit). Type of test: biochemical. To be noted: 37° C., 60 minutes; tested at 100, 1000 and 10000 nM. The method, then:
as §1, §2

With `Cc1c(Cc2ccc(C(=O)NO)cc2)c2ccccc2n1CC1CCN(CC2(F)CCN(C(=O)OC(C)(C)C)CC2)CC1` [Compound 610, Tert-butyl 4-fluoro-4-((4-((3-(4-(hydroxycarbamoyl)benzyl)-2-methyl-1H-indol-1-yl)methyl)piperidin-1-yl)methyl)piperidine-1-carboxylate], the pIC50 at HDAC6 human recombinant was 7.10; on HDAC1, < 5.00.
The matching figures for `Cc1c(Cc2ccc(C(=O)NO)cc2)c2ccccc2n1CC1CCN(CC2(F)CCNCC2)CC1` [Compound 611, 4-((1-((1-((4-fluoropiperidin-4-yl)methyl)piperidin-4-yl)methyl)-2-methyl-1H-indol-3-yl)methyl)-N-hydroxybenzamide]: 7.62 and 5.53.
The matching figures for `CC(=O)N1CCC(F)(CN2CCC(Cn3c(C)c(Cc4ccc(C(=O)NO)cc4)c4ccccc43)CC2)CC1` [Compound 612, 4-((1-((1-((1-acetyl-4-fluoropiperidin-4-yl)methyl)piperidin-4-yl)methyl)-2-methyl-1H-indol-3-yl)methyl)-N-hydroxybenzamide]: 7.21 and 5.04.
For `Cc1c(Cc2ccc(C(=O)NO)cc2)c2ccccc2n1CC1CCN(CC2(F)CCN(CC(C)(C)O)CC2)CC1` [Compound 613, 4-((1-((1-((4-fluoro-1-(2-hydroxy-2-methylpropyl)piperidin-4-yl)methyl)piperidin-4-yl)methyl)-2-methyl-1H-indol-3-yl)methyl)-N-hydroxybenzamide] the same measures were 7.16 and 5.17.
`Cc1c(Cc2ccc(C(=O)NO)cc2)c2ccccc2n1CC1CCN(CC2(F)CCN(CC(C)(C)F)CC2)CC1` [Compound 615, 4-((1-((1-((4-Fluoro-1-(2-fluoro-2-methylpropyl)piperidin-4-yl)methyl)piperidin-4-yl)methyl)-2-methyl-1H-indol-3-yl)methyl)-N-hydroxybenzamide]: the negative-log IC50 (pIC50) at HDAC6 human recombinant is 8.15; against HDAC1 it was < 5.00.
For `Cc1c(Cc2ccc(C(=O)NO)cc2)c2ccccc2n1CC1CCN(Cc2cc(F)c(F)cc2F)CC1` [Compound 619, N-hydroxy-4-((2-methyl-1-((1-(2,4,5-trifluorobenzyl)piperidin-4-yl)methyl)-1H-indol-3-yl)methyl)benzamide] the same measures were 6.11 and < 5.00.
The matching figures for `Cc1c(Cc2ccc(C(=O)NO)cc2)c2ccccc2n1CC1CCN(Cc2ccccc2F)CC1` [Compound 620, 4-((1-((1-(2-Fluorobenzyl)piperidin-4-yl)methyl)-2-methyl-1H-indol-3-yl)methyl)-N-hydroxybenzamide]: 6.51 and < 5.00.
The matching figures for `Cc1c(Cc2ccc(C(=O)NO)cc2)c2ccccc2n1CC1CCN(Cc2ccccn2)CC1` [Compound 623, N-hydroxy-4-((2-methyl-1-((1-(pyridin-2-ylmethyl)piperidin-4-yl)methyl)-1H-indol-3-yl)methyl)benzamide]: 7.55 and 5.83.
As to `CC(C)(F)CN1CCC(Cn2c(-c3ccncc3)c(Cc3ccc(C(=O)NO)cc3)c3ccccc32)CC1` [Compound 624, 4-((1-((1-(2-Fluoro-2-methylpropyl)piperidin-4-yl)methyl)-2-(pyridin-4-yl)-1H-indol-3-yl)methyl)-N-hydroxybenzamide], the pIC50 on HDAC6 human recombinant was 6.97; on HDAC1, 5.30.
For `CC(C)(F)CN1CCC(Cn2c(-c3cncnc3)c(Cc3ccc(C(=O)NO)cc3)c3ccccc32)CC1` [Compound 625, 4-((1-((1-(2-Fluoro-2-methylpropyl)piperidin-4-yl)methyl)-2-(pyrimidin-5-yl)-1H-indol-3-yl)methyl)-N-hydroxybenzamide] the same measures were 7.15 and 5.24.
For `CC(C)(F)CN1CCC(Cn2c(-c3cc(F)cc(F)c3)c(Cc3ccc(C(=O)NO)cc3)c3ccccc32)CC1` [Compound 626, 4-((2-(3,5-Difluorophenyl)-1-((1-(2-fluoro-2-methylpropyl)piperidin-4-yl)methyl)-1H-indol-3-yl)methyl)-N-hydroxybenzamide] the same measures were 6.23 and < 5.00.
Regarding `Cc1c(Cc2ccc(C(=O)NO)cc2)c2ccccc2n1CC1CCN(Cc2cccc(F)c2)CC1` [Compound 631, 4-((1-((1-(3-Fluorobenzyl)piperidin-4-yl)methyl)-2-methyl-1H-indol-3-yl)methyl)-N-hydroxybenzamide], the pIC50 was 5.87 on HDAC6 human recombinant and < 5.00 at HDAC1.
The matching figures for `Cc1c(Cc2ccc(C(=O)NO)cc2)c2ccccc2n1CC1CCN(Cc2cccnc2)CC1` [Compound 632, N-hydroxy-4-((2-methyl-1-((1-(pyridin-3-ylmethyl)piperidin-4-yl)methyl)-1H-indol-3-yl)methyl)benzamide]: 7.20 and 5.75.
The matching figures for `Cc1c(Cc2ccc(C(=O)NO)cc2)c2ccccc2n1CCN1C[C@@H](C)N(CC(C)(C)F)[C@@H](C)C1` [Compound 633, 4-((1-(2-((3S,5R)-4-(2-fluoro-2-methylpropyl)-3,5-dimethylpiperazin-1-yl)ethyl)-2-methyl-1H-indol-3-yl)methyl)-N-hydroxybenzamide]: 7.12 and 5.75.
For `Cc1c(Cc2ccc(C(=O)NO)cc2)c2ccccc2n1CCCCN1CCN(CC(C)(C)F)CC1` [Compound 639, 4-((1-(4-(4-(2-Fluoro-2-methylpropyl)piperazin-1-yl)butyl)-2-methyl-1H-indol-3-yl)methyl)-N-hydroxybenzamide] the same measures were 7.12 and 5.30.
Regarding `Cc1c(Cc2ccc(C(=O)NO)cc2)c2ccccc2n1CCCN1CCN(CC(C)(C)F)CC1` [Compound 640, 4-((1-(3-(4-(2-Fluoro-2-methylpropyl)piperazin-1-yl)propyl)-2-methyl-1H-indol-3-yl)methyl)-N-hydroxybenzamide], the negative-log IC50 (pIC50) was 6.94 on HDAC6 human recombinant and 5.12 against HDAC1.
The matching figures for `Cc1c(Cc2ccc(C(=O)NO)cc2)c2ccccc2n1CC1CCN(CC2(C)COC2)CC1` [Compound 643, N-hydroxy-4-((2-methyl-1-((1-((3-methyloxetan-3-yl)methyl)piperidin-4-yl)methyl)-1H-indol-3-yl)methyl)benzamide]: 7.55 and 5.34.
For `Cc1c(Cc2ccc(C(=O)NO)cc2)c2ccccc2n1CC1CCN(CC2(F)CCN(C)CC2)CC1` [Compound 679, 4-((1-((1-((4-Fluoro-1-methylpiperidin-4-yl)methyl)piperidin-4-yl)methyl)-2-methyl-1H-indol-3-yl)methyl)-N-hydroxybenzamide] the same measures were 7.89 and 6.08.
For `Cc1c(Cc2ccc(C(=O)NO)cc2)c2ccccc2n1CC1CCN(CC2(F)CCN(C(C)C)CC2)CC1` [Compound 681, 4-((1-((1-((4-Fluoro-1-isopropylpiperidin-4-yl)methyl)piperidin-4-yl)methyl)-2-methyl-1H-indol-3-yl)methyl)-N-hydroxybenzamide] the same measures were 7.43 and 6.10.
With `Cc1c(Cc2ccc(C(=O)NO)cc2)c2ccccc2n1CC1CCN(CC2(F)CCN(S(C)(=O)=O)CC2)CC1` [Compound 696, 4-((1-((1-((4-Fluoro-1-(methylsulfonyl)piperidin-4-yl)methyl)piperidin-4-yl)methyl)-2-methyl-1H-indol-3-yl)methyl)-N-hydroxybenzamide], the values for the pIC50 at HDAC6 human recombinant and on HDAC1 were 6.91 and < 5.00, respectively.
